# Measured values from the supplement of paper PMC10307832.
# Columns and labels:
# Experiment in all cases: relative viability (nuclei count vs DMSO), 5 days (fraction); higher = more cells survive
# Seliciclib + Lapatinib = compound: CC[C@H](CO)Nc1nc(NCc2ccccc2)c2ncn(C(C)C)c2n1 [Seliciclib] + CS(=O)(=O)CCNCc1ccc(-c2ccc3ncnc(Nc4ccc(OCc5cccc(F)c5)c(Cl)c4)c3c2)o1 [Lapatinib] (partner 2 µM)
# Outline: (§1)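 Relative viability equals treated-well nuclei counts divided by vehicle-well nuclei counts. Counts came from 4× images of lung cancer cell lines grown in 1536-well plates for 5 days after pin-tool dosing on the day after seeding. Dosing used one drug alone or a fixed anchor-drug dose plus five library-drug doses (not always all listed) in √10 steps, and values are medians of duplicate plates.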
# Seliciclib + Crizotinib = compound: CC[C@H](CO)Nc1nc(NCc2ccccc2)c2ncn(C(C)C)c2n1 [Seliciclib] + C[C@@H](Oc1cc(-c2cnn(C3CCNCC3)c2)cnc1N)c1c(Cl)ccc(F)c1Cl [Crizotinib] (partner 1 µM)
# Outline: as §1
# Seliciclib + Dasatinib = compound: CC[C@H](CO)Nc1nc(NCc2ccccc2)c2ncn(C(C)C)c2n1 [Seliciclib] + Cc1nc(Nc2ncc(C(=O)Nc3c(C)cccc3Cl)s2)cc(N2CCN(CCO)CC2)n1 [Dasatinib] (partner 0.075 µM)
# Outline: as §1
# Seliciclib + Pemetrexed = compound: CC[C@H](CO)Nc1nc(NCc2ccccc2)c2ncn(C(C)C)c2n1 [Seliciclib] + Nc1nc2[nH]cc(CCc3ccc(C(=O)N[C@@H](CCC(=O)O)C(=O)O)cc3)c2c(=O)[nH]1 [Pemetrexed] (partner 0.2 µM)
# Outline: as §1
Cell Line,relative viability (Seliciclib + Lapatinib; first compound 0.08 µM),relative viability (Seliciclib + Lapatinib; first compound 0.253 µM),relative viability (Seliciclib + Lapatinib; first compound 0.8 µM),relative viability (Seliciclib + Lapatinib; first compound 8 µM),relative viability (Seliciclib + Crizotinib; first compound 0.08 µM),relative viability (Seliciclib + Crizotinib; first compound 0.253 µM),relative viability (Seliciclib + Crizotinib; first compound 0.8 µM),relative viability (Seliciclib + Crizotinib; first compound 8 µM),relative viability (Seliciclib + Dasatinib; first compound 0.08 µM),relative viability (Seliciclib + Dasatinib; first compound 0.253 µM),relative viability (Seliciclib + Dasatinib; first compound 0.8 µM),relative viability (Seliciclib + Dasatinib; first compound 2.53 µM),relative viability (Seliciclib + Dasatinib; first compound 8 µM),relative viability (Seliciclib + Pemetrexed; first compound 0.08 µM),relative viability (Seliciclib + Pemetrexed; first compound 0.253 µM),relative viability (Seliciclib + Pemetrexed; first compound 0.8 µM),relative viability (Seliciclib + Pemetrexed; first compound 2.53 µM),relative viability (Seliciclib + Pemetrexed; first compound 8 µM),relative viability (Seliciclib + Lapatinib; first compound 2.53 µM),relative viability (Seliciclib + Crizotinib; first compound 2.53 µM)
LCLC-97TM1,1.12,1.71,1.36,0.364,0.295,0.366,0.463,0.252,0.758,0.965,0.732,0.333,0.704,0.206,0.148,0.192,0.135,0.135,–,–
HARA,0.798,0.614,0.781,0.701,1.06,1.16,1.06,0.638,0.288,0.274,0.319,0.228,0.245,0.238,0.28,0.244,0.227,0.21,0.374,1.21
HCC-78,0.931,1.39,0.881,0.479,0.364,0.333,0.327,0.274,0.427,0.416,0.371,0.259,0.28,0.852,0.89,0.914,0.958,0.88,0.559,0.262
NCI-H1666,0.722,0.8,0.48,0.476,1.08,0.953,1.05,0.46,0.732,0.888,0.875,0.605,0.551,0.918,0.959,0.824,0.821,0.815,0.474,0.852
NCI-H2347,0.867,0.858,0.835,0.905,0.711,0.741,0.742,0.595,0.323,0.35,0.209,0.248,0.302,0.409,0.454,0.419,0.437,0.42,0.974,0.763
NCI-H2342,–,–,–,–,–,–,–,–,0.328,0.336,0.313,0.301,0.319,0.748,0.779,0.752,0.693,0.711,–,–
NCI-H838,0.967,0.92,0.926,0.362,0.806,0.766,0.841,0.673,0.341,0.198,0.26,0.218,0.303,0.246,0.28,0.242,0.263,0.239,0.868,0.936
NCI-H2023,0.932,0.991,0.732,0.451,0.554,0.578,0.682,0.555,0.534,0.407,0.606,0.434,0.477,0.261,0.276,0.229,0.181,0.222,0.406,0.595
201T,1.08,1.07,1,0.843,1.04,0.996,1.04,0.95,0.502,0.654,0.589,0.385,0.548,0.379,0.357,0.382,0.27,0.323,0.952,1.02
